From PubChem BioAssay (NCI)
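How tested: cells in 96-well plates exposed to compound for 48 hours at five concentrations. GI50 marks 50% less growth. TGI is the concentration that stops growth completely.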

What was measured:
Assay in all cases: DTP human tumour cell line panel, 48 h
K-562 leukemia = test system: K-562 leukemia
M14 melanoma = test system: M14 melanoma
MALME-3M melanoma = test system: MALME-3M melanoma
MDA-N = test system: MDA-N
NCI-H460 lung = test system: NCI-H460 lung
OVCAR-3 ovarian = test system: OVCAR-3 ovarian
PC-3 prostate = test system: PC-3 prostate
SF-539 CNS = test system: SF-539 CNS
SN12C renal = test system: SN12C renal
SR leukemia = test system: SR leukemia

Row | Compound | TGI (K-562 leukemia) | TGI (M14 melanoma) | TGI (MALME-3M melanoma) | TGI (MDA-N) | TGI (NCI-H460 lung) | TGI (OVCAR-3 ovarian) | TGI (PC-3 prostate) | TGI (SF-539 CNS) | TGI (SN12C renal) | TGI (SR leukemia) | GI50 (K-562 leukemia) | GI50 (M14 melanoma) | GI50 (NCI-H460 lung) | GI50 (PC-3 prostate) | GI50 (SF-539 CNS) | GI50 (SN12C renal) | GI50 (SR leukemia)
1 | NC1=CC(=O)c2c(O)ccc(O)c2C1=O | > 50.5 µM | 22.3 µM | 7.08 µM | 13.1 µM | 25.2 µM | 8.45 µM | > 90.6 µM | 36 µM | 31.5 µM |  |  |  |  |  |  |  | 
2 | CC(=O)Nc1nc(Cl)cc(NCC2(CO)CCC2)n1 | > 100 µM | > 100 µM | > 100 µM | > 100 µM | > 100 µM | > 100 µM | > 100 µM |  | > 100 µM | > 100 µM |  |  |  |  |  |  | 
3 | C[C@@H]1CC[C@@]2(C)C(C(=O)O)=CCCC2[C@@]1(C)CC(=O)c1ccoc1 (some centres undefined) |  | > 25 µM |  | > 25 µM | > 25 µM | > 25 µM | > 25 µM | > 25 µM | > 25 µM | > 25 µM |  |  |  |  |  |  | 
4 | Nc1ncnc2c1nnn2C1C=CC(CP(=O)(O)O)C1 (centres undefined) |  | > 100 µM | > 100 µM | > 100 µM | > 100 µM | > 100 µM | > 100 µM | > 100 µM | > 100 µM |  |  |  |  |  |  |  | 
5 | COC1OC(C)C(NC(=O)OCC(Cl)(Cl)Cl)C2OC(C)(C)OC12 (centres undefined) | > 100 µM | > 100 µM | > 100 µM |  | > 100 µM | > 100 µM | > 100 µM | > 100 µM | > 100 µM | > 100 µM |  |  |  |  |  |  | 
6 | O=C(COc1ccc(OCC(=O)N/N=C/c2ccc(-c3ccc(Cl)cc3Cl)o2)c(Cl)c1)N/N=C/c1ccc(-c2ccc(Cl)cc2Cl)o1 | 50.2 µM | > 100 µM | > 100 µM | > 100 µM | > 100 µM | > 100 µM | > 100 µM |  | > 100 µM | 8.25 µM |  |  |  |  |  |  | 
7 | O=C(/C=C/c1ccc(Cl)cc1)Oc1ccc(C=C2CCC/C(=C\c3ccc(OC(=O)/C=C/c4ccc(Cl)cc4)cc3)C2=O)cc1 | > 100 µM | > 100 µM | > 100 µM | > 100 µM | > 100 µM | > 100 µM | > 100 µM | > 100 µM | > 100 µM |  |  |  |  |  |  |  | 
8 | O=[N+]([O-])c1cccc(C2=NN(c3ccccc3)C3c4cc(Br)ccc4OCC23)c1 (centres undefined) | > 100 µM |  | > 100 µM |  | > 100 µM | > 100 µM |  | > 100 µM |  |  |  |  |  |  |  |  | 
9 | COc1cc2nc(-c3ccc(Cl)cc3)cc(OCCCN3CCOCC3)c2cc1OC | > 100 µM | 2.7 µM |  |  | > 100 µM |  | > 100 µM | > 100 µM | > 100 µM | > 100 µM | 2710 nM | 545 nM | 958 nM | 2630 nM | 2990 nM | 1300 nM | 414 nM
10 | OCc1ccc2c(c1)CC1(C2)Cc2cc3c(cc2C1O)CCC3 (centres undefined) | > 37.6 µM | 13 µM | 19.2 µM |  | 17.1 µM | > 50.9 µM | 11.7 µM | 14.9 µM | 23.8 µM | > 21.7 µM |  |  |  |  |  |  | 
11 | CC(=O)c1ccc(Oc2c3ccccc3nc3ccccc23)cc1 | 20.1 µM | 14.6 µM | 27.2 µM | 14.2 µM | 31.9 µM | 21 µM | 20.3 µM | 5.5 µM | 16 µM |  |  |  |  |  |  |  | 
12 | CN(C)c1ccc(/C=C(\NC(=O)c2ccccc2)C(=O)NC(CC(=O)O)C(=O)O)cc1 (centres undefined) | 33.3 µM | > 100 µM |  |  | > 100 µM | > 100 µM | > 100 µM | > 100 µM | > 100 µM | > 100 µM |  |  |  |  |  |  | 
13 | COc1cc(C)c(CC/C(C)=C/Cc2cc(O)ccc2O)c(C)c1C | > 25 µM | > 25 µM | > 25 µM |  | > 25 µM | > 25 µM |  | > 25 µM | > 25 µM | > 25 µM |  |  |  |  |  |  | 
14 | CC1=CC2C3(C)C(C)(C(C)=CP3(=O)c3c(C(C)C)cc(C(C)C)cc3C(C)C)C1P2(=O)c1c(C(C)C)cc(C(C)C)cc1C(C)C (centres undefined) | 12.8 µM | 4.21 µM | 5.79 µM | 5.62 µM | 3.01 µM | 6.43 µM | 10.4 µM |  | 7.9 µM | 3.92 µM |  |  |  |  |  |  | 
15 | CN(C)C(=O)C(F)(F)C(c1ccc(F)cc1)C1C(=O)N(C)C(=O)N(C)C1=O (centres undefined) |  | > 100 µM |  |  | > 100 µM | > 100 µM | > 100 µM |  |  |  |  |  |  |  |  |  | 
16 | CCc1c(O)cc(=O)oc1-c1ccc(OC)c(OC)c1 | > 100 µM | > 100 µM |  |  | > 100 µM | > 100 µM | > 100 µM | > 100 µM | > 100 µM |  |  |  |  |  |  |  | 
17 | Cc1ccccc1-c1nc2c(N)nc(N)nc2nc1N | > 100 µM | > 100 µM |  | > 100 µM | > 100 µM | > 100 µM | > 100 µM | > 100 µM | > 100 µM | > 100 µM |  |  |  |  |  |  | 
18 | O=C(CCc1cc(O)cc(O)c1)NCCc1cc(OCc2ccccc2)cc(OCc2ccccc2)c1 | 29.7 µM | 34.8 µM |  | 35 µM | 14.4 µM | 52.2 µM | 23.6 µM | 44.6 µM | 35.9 µM | 27 µM |  |  |  |  |  |  | 
19 | O=c1ccc2ccc(S)cc2o1 |  | > 100 µM | > 100 µM | > 100 µM | > 100 µM | > 100 µM | > 100 µM | > 100 µM | > 100 µM | > 100 µM |  |  |  |  |  |  | 
20 | COC(=O)[C@]1(C)CCC[C@@]2(C)C1CC[C@]13C=C(C(C)C)[C@H](CC21)CC3(Cl)C#N (some centres undefined) | > 100 µM | > 100 µM | 89.7 µM |  | > 100 µM | > 100 µM | > 100 µM | > 100 µM | > 100 µM | > 100 µM |  |  |  |  |  |  | 
21 | Cc1c(N2CCOCC2)nc2ccc(Cl)cc2c1-c1ccccc1 | > 100 µM | > 100 µM | > 100 µM |  | > 100 µM | > 100 µM |  | > 100 µM | > 100 µM | > 100 µM |  |  |  |  |  |  | 
22 | C[C@]12CCC3[C@@H](CCC45OC4C(=O)CC[C@]35C)C1Cc1cnn(-c3ccc(F)cc3)c1N2 (some centres undefined) | 66.8 µM | > 100 µM | > 100 µM |  | > 100 µM |  |  |  | 48.4 µM | > 100 µM |  |  |  |  |  |  | 
23 | O=C(/C=C/c1ccc(O)c(O)c1)OCCc1ccc2ccccc2c1 |  | 16.9 µM | 23.1 µM | 5.45 µM | 23.7 µM | 12.4 µM | 20.5 µM | 19.1 µM | 17.8 µM |  |  |  |  |  |  |  | 
24 | CC1=NN(C(=O)Cc2ccccc2)C(=O)/C1=C\c1ccc(O)cc1 | > 100 µM | > 100 µM | > 100 µM |  | > 100 µM | > 100 µM |  | > 100 µM | > 100 µM |  |  |  |  |  |  |  | 
